This is an account of results in patent publication US11980185B2, “Bioflavonoid compositions and their use for water purification and food preservation” (Citrox Biosciences Limited, priority 2018, dated 2024).

Assay [1] relates to Escherichia coli. Kind of assay: Direct exposure growth inhibition of mini cultures by turbidity (MIC). In kind it is cell-based. As to conditions: 5 hours at 37° C.
Description: Growth inhibition was monitored by measuring turbidity of mini cultures after 5 hours of aerobe incubation at 37° C. under agitation. Solutions were diluted to the half in cascade.
Assay [2] concerns Escherichia coli. The assay is described as follows: Pretreatment of high binding plates, growth inhibition by turbidity. In kind it is cell-based. How it is done:
High Binding plates were pre-treated with 0.1 mL of pure Citrox/ε-Polylysine solutions incubated 60′ at room temperature. The concentrations of Citrox range from 0.06% to 4%. The ε-Polylysine concentrations range from 30 mg/L to 120 mg/L. The wells have been emptied and rinsed with 0.2 mL bi-distilled water. 0.2 mL of a diluted Escherichia coli culture (turbidity: 5 mOD at 600 nm) were given to the pre-treated wells and incubated for 3 hours at 37° C. Turbidity were measured at 600 nm and percentage of growth inhibition in comparison to untreated well calculated (FIG. 1).

A further assay has as its system Streptococcus mutans. Kind of assay: Inhibition zone assay on BHI agar plate. In kind it is cell-based. The following applies: 48 h at 37° C. anaerobe. How it is done: The antibacterial activity of ε-polylysine was semi-quantitatively assessed in a inhibition zone assay. 0.1 mL of a confluent Streptococcus mutans culture was spread over a Brain Heart Infusion (BHI) agar plate. Filter platelets (5 mm diameter) soaked with 0.01 mL substance were applied on plate. Plates were incubated 48 h at 37° C. under anaerobe conditions. The diameter of outer limit of the inhibition zones were measured, the diameter of the platelet deduced and the half result considered the radius of inhibition rings. Concentrations were tested in triplicate and their results averaged.

The target of a further assay is Glucose oxidase (Aspergillus niger, UniProt P13006). Kind of assay: Immobilisation of glucose oxidase onto silicate, residual activity in solution. As to conditions: 0.25 mg/mL, 2 mg/mL silicate, artificial saliva buffer, FIG. 3. How it is done:
0.5 mg/mL glucose oxidase enzyme was incubated for 15 minutes at room temperature in an artificial saliva buffer composition including:
with 2 mg/mL silicate and 0.25 mg/mL of an amino acid based compound, bovine serum albumin (BSA), lysine or ε-polylysine. The mixture was centrifuged in order to pellet the silicate and the supernatant tested for its glucose oxidase activity in presence of glucose, lactoperoxidase and a chromogen substrate (ABTS). The resulting activities were compared with the enzyme incubated with silicate in absence of an amino acid compound (FIG. 3).

Assay [3] has as its system chloroquine-sensitive Plasmodium chabaudi. The assay is described as follows: Malaria infection in mice. The following applies: 20 to 40 days post-treatment. The format is in vivo.
A further assay has as its system S. mutans. Kind of assay: Short exposure assay (bactericidal effect). In kind it is cell-based, Streptococcus mutans. As to conditions: 0.05%, 10 minutes exposure, 5000 Colony Forming Units. On the procedure: The short-term antibacterial activity of Citrox was semi-quantitatively assessed in a short exposure assay. A S. mutans culture, diluted in order to contain 5000 Colony Forming Units, was incubated for 10 minutes in presence of the antibacterial substance and extemporarily plated onto a BHI agar plate. Plates were incubated at 37° C. under anaerobe conditions and colony counted. […] Citrox 0.5% reduced the count of CFU to the half (<3000 CFU).

Sequence of Glucose oxidase (P13006 17-605): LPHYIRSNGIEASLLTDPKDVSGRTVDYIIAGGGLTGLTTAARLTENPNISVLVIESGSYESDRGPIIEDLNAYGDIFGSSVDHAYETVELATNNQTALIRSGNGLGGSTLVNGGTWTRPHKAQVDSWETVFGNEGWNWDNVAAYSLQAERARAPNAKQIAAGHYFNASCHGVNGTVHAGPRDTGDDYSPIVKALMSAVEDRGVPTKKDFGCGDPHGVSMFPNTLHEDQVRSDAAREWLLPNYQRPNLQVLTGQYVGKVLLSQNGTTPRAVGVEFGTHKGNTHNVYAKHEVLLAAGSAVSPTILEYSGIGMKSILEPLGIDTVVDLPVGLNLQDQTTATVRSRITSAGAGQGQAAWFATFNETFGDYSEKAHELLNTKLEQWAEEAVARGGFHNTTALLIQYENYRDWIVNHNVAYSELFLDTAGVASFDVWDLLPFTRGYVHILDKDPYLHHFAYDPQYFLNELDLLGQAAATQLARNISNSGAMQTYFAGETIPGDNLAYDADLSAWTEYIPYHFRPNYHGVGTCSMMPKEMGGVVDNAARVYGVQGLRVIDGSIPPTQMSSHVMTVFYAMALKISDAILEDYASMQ

With ε-Polylysine, in the assay on Escherichia coli [1] (less than 2% of growth vs untreated control, extrapolated from FIG. 2), the “Minimal inhibitory concentration (MIC)” value is recorded as 4 mg/L. In the assay on Escherichia coli [2] (plate pretreatment together with Citrox), the “highest ε-polylysine concentration that does not affect significantly the antibacterial effect of Citrox pretreatment” value is recorded as 30 mg/L. Moreover, the “inhibitory effect of pretreatment of a high binding plate” value with Escherichia coli [2] (ε-polylysine alone, titers largely above the MIC of direct exposure) is “does not yield any inhibitory effect”. The “Radius of inhibition rings” value with Streptococcus mutans (10 mg/L) is 0.5 mm; in the assay on Streptococcus mutans (100 mg/L), 2.5 mm; with Streptococcus mutans (1000 mg/L) it was 6.5 mm. For the same molecule, at Glucose oxidase, the “immobilization of Glucose oxidase onto silicate” value is recorded as “promotes immobilization of Glucose oxidase onto silicate”.
For the molecule `CCO` [Ethanol, reference compound], in the assay on Escherichia coli [1] (less than 2% (6% in case of ethanol) of growth, extrapolated from FIG. 2, 1% corresponds to 10 g/L), the “Minimal inhibitory concentration (MIC)” value is on record as 12.5%. Moreover, in the assay on Streptococcus mutans (concentration not given), the “Radius of inhibition rings” value is listed as 5 mm.
In the case of `CCN(CC)CCCC(C)Nc1ccnc2cc(Cl)ccc12` (stereo not shown) [chloroquine], the infection level result in assay [3] is recorded as “approx. zero infection”.
Turning to `OO` [Water peroxide, reference compound], the “Radius of inhibition rings” value in the assay with Streptococcus mutans (0.1%) was 1.5 mm; in the assay with Streptococcus mutans (1%), 5 mm. Besides, in the assay with S. mutans, the colony formation entry is recorded as “complete absence of colony formation”.
